These results are taken from patent US20240269139A1, “COMPOUNDS FOR TARGETED PROTEIN DEGRADATION OF KINASES” (DANA-FARBER CANCER INSTITUTE, INC., priority 2020, published 2024).

Holding throughout (format): cell-based
Assay [1] concerns the target T1, protein kinases (human kinome) (Homo sapiens, UniProt O95835).
T1 sequence (O95835 1-1130): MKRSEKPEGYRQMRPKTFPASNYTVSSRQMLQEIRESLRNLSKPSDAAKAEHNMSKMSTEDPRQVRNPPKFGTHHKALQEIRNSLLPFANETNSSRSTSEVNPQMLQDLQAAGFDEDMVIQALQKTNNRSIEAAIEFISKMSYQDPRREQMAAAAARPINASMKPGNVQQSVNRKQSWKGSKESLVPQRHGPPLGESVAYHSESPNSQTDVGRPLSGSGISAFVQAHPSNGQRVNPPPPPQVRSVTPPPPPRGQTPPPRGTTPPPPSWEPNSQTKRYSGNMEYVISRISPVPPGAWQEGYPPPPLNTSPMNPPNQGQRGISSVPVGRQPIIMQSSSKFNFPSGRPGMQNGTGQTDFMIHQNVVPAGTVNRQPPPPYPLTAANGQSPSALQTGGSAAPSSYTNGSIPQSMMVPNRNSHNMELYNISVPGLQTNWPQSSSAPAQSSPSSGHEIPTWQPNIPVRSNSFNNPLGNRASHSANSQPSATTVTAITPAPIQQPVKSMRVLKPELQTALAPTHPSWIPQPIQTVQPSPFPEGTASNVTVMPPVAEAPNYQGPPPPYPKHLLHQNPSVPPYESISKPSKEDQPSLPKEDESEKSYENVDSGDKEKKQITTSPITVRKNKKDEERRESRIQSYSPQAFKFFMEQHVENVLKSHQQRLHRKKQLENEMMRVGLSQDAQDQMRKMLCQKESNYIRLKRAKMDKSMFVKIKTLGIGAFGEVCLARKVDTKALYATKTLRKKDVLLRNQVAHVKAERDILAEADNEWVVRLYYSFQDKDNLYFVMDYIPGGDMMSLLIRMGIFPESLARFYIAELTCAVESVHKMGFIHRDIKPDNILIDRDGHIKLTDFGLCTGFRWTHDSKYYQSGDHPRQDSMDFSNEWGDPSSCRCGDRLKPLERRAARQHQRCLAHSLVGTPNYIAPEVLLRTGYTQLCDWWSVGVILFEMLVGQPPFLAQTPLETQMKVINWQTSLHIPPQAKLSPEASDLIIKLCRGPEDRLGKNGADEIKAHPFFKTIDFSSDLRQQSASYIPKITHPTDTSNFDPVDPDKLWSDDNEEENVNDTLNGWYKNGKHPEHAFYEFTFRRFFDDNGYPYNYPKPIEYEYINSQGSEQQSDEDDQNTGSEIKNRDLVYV
The note with it: LATS1 O95835; experiment wp071.

Assay [2] has as its target protein kinases (human kinome) (Homo sapiens, UniProt P41240). The note with it: experiment wp071.
Assay [3] addresses protein kinases (human kinome) (Homo sapiens, UniProt P42684).
In assay [4] the target is protein kinases (human kinome) (Homo sapiens, UniProt P49674). The note with it: CSNK1E P49674; experiment wp071.
The target in assay [5] is protein kinases (human kinome) (Homo sapiens, UniProt P51451).
In assay [6] the target is protein kinases (human kinome) (Homo sapiens, UniProt P53667). The following applies: LIMK1 (P53667-1), experiment wp071.
Assay [7] deals with T2, protein kinases (human kinome) (Homo sapiens, UniProt Q13163).
T2 sequence (Q13163 1-448): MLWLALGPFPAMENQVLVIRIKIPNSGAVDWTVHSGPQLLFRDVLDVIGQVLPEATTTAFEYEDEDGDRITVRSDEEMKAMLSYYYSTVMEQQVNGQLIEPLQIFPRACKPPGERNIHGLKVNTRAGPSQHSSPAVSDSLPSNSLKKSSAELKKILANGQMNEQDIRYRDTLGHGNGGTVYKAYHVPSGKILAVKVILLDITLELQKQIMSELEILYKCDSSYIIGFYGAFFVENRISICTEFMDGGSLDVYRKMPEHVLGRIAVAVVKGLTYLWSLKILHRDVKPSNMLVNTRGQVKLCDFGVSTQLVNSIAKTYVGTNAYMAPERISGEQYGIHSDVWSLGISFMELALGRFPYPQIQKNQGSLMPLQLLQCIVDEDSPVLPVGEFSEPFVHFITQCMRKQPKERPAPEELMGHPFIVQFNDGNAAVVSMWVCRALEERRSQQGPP
The note with it: experiment wp071.

For assay [8], the system named is protein kinases (human kinome). The note with it: for logFC GSK3B: experiment wp017.
The target in assay [9] is T3, protein kinases (human kinome) (Homo sapiens, UniProt O60285).
T3 sequence (O60285 1-661): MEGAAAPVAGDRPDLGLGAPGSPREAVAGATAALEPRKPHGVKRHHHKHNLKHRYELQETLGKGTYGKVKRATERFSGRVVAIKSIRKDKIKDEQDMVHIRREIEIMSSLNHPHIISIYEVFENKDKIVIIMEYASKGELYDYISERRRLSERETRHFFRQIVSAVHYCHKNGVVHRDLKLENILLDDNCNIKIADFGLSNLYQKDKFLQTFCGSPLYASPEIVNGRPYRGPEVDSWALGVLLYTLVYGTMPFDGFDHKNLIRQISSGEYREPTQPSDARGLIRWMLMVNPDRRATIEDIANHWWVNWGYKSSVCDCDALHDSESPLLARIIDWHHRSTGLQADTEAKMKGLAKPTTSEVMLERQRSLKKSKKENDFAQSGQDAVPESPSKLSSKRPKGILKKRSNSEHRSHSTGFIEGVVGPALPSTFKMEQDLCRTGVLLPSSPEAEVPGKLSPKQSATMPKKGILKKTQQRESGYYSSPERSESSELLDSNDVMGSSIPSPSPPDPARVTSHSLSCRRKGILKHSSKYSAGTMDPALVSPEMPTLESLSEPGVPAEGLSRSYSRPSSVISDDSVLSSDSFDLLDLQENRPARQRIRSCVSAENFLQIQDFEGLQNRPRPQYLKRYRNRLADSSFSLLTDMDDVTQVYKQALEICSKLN
The note with it: NUAK1 (O60285), experiment wp017.

In assay [10] the target is T4, protein kinases (human kinome) (Homo sapiens, UniProt O94768).
T4 sequence (O94768 1-372): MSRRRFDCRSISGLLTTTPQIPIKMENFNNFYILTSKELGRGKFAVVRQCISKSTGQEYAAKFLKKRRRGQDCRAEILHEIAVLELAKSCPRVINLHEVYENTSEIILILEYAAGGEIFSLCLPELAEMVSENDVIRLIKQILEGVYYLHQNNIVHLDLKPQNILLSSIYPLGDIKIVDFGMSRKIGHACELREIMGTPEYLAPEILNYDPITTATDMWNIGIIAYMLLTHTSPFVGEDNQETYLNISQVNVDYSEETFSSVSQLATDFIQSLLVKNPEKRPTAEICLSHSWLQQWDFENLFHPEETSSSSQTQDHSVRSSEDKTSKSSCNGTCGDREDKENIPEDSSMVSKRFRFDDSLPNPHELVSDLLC

Assay [11] addresses protein kinases (human kinome) (Homo sapiens, UniProt O94921).
Assay [12] addresses protein kinases (human kinome) (Homo sapiens, UniProt P48730).
Assay [13] has as its target protein kinases (human kinome) (Homo sapiens, UniProt P49840). The note with it: GSK3A P49840; experiment wp017.
Assay [14] addresses T5, protein kinases (human kinome) (Homo sapiens, UniProt Q13043).
T5 sequence (Q13043 1-487): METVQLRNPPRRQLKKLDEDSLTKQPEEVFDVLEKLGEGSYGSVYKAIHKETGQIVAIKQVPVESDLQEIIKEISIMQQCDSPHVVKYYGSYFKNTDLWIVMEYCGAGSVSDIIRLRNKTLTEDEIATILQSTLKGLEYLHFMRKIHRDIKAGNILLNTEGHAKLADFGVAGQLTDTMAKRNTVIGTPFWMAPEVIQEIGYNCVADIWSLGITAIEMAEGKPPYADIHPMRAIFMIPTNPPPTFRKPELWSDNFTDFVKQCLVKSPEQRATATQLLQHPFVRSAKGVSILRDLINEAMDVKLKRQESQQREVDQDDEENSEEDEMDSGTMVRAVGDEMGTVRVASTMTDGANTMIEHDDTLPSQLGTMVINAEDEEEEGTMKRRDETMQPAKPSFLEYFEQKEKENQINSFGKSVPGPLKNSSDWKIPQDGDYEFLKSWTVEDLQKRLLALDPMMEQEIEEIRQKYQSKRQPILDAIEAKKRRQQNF

Assay [15] has as its target T6, protein kinases (human kinome) (Homo sapiens, UniProt Q8TBX8).
T6 sequence (Q8TBX8 1-421): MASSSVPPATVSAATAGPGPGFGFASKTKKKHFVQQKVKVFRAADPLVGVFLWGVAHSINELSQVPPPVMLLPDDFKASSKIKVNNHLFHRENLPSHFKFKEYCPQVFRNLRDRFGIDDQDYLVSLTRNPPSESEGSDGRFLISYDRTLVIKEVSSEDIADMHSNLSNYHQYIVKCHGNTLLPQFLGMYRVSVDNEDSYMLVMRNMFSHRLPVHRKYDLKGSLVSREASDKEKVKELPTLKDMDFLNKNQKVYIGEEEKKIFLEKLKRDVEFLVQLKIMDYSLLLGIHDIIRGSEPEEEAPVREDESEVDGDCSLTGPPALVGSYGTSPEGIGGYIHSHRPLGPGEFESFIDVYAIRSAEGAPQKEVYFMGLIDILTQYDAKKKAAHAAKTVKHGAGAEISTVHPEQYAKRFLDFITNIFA
The following applies: PIP4K2C Q8TBX8-1; experiment wp017.

The target of assay [16] is protein kinases (human kinome) (Homo sapiens, UniProt Q9P1W9).

Read-outs that look alike come from different tables or passages of the source.

protein kinases (human kinome) (Homo sapiens, UniProt P49674), sequence (P49674 whole entry): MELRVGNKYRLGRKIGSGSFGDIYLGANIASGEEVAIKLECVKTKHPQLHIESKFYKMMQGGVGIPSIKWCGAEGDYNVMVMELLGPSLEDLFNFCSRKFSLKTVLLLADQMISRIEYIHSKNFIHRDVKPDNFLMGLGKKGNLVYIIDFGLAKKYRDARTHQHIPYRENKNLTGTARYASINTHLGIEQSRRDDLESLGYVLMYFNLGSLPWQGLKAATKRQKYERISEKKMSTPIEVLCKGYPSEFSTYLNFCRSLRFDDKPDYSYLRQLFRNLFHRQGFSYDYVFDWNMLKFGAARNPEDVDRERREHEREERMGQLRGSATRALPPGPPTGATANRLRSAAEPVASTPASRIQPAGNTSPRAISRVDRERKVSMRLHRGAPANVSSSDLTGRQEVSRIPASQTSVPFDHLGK
protein kinases (human kinome) (Homo sapiens, UniProt P51451), sequence (P51451 whole entry): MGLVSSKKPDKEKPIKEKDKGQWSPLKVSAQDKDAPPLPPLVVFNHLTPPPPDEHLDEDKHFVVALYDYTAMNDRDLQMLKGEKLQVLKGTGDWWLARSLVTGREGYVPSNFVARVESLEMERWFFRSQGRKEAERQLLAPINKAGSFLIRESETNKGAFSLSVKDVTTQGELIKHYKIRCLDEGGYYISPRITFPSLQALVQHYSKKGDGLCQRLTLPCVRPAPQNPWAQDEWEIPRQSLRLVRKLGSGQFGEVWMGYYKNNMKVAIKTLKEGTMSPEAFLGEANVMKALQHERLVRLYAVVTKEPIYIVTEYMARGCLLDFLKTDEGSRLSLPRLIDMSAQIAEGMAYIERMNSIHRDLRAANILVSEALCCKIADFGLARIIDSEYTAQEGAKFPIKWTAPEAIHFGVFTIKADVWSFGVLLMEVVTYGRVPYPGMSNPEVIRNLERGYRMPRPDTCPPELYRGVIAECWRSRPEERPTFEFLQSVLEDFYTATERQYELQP
protein kinases (human kinome) (Homo sapiens, UniProt P42684), sequence (P42684 whole entry): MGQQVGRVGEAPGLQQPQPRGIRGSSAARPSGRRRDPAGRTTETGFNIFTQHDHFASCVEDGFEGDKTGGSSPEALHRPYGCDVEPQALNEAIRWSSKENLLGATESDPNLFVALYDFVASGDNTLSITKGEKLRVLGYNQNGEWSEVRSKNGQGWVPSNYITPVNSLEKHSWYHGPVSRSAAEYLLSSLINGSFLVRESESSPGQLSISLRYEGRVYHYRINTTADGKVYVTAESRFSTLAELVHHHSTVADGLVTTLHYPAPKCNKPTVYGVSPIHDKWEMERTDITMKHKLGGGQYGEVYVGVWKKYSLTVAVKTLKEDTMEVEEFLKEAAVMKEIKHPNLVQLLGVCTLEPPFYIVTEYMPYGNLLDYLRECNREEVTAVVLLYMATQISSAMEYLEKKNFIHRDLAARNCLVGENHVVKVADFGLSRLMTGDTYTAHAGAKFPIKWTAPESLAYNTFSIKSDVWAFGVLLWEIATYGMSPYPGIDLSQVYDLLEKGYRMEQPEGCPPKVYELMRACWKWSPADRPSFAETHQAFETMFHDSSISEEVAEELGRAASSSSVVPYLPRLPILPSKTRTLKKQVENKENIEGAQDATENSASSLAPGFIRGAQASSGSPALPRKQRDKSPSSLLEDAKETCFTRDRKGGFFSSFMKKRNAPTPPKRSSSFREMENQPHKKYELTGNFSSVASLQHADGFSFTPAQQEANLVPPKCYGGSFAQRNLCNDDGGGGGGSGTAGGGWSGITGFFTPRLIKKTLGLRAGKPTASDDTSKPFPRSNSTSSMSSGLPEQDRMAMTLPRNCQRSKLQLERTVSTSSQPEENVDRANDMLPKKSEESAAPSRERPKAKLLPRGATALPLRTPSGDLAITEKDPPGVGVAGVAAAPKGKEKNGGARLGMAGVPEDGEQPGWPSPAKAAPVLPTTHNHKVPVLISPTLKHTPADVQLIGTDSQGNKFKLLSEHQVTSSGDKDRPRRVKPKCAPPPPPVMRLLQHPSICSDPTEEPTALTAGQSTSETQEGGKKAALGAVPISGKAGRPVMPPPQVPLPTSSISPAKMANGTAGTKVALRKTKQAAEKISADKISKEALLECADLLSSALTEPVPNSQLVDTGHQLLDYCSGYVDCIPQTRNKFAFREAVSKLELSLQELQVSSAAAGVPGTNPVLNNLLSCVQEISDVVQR
protein kinases (human kinome) (Homo sapiens, UniProt O94921), sequence (O94921 whole entry): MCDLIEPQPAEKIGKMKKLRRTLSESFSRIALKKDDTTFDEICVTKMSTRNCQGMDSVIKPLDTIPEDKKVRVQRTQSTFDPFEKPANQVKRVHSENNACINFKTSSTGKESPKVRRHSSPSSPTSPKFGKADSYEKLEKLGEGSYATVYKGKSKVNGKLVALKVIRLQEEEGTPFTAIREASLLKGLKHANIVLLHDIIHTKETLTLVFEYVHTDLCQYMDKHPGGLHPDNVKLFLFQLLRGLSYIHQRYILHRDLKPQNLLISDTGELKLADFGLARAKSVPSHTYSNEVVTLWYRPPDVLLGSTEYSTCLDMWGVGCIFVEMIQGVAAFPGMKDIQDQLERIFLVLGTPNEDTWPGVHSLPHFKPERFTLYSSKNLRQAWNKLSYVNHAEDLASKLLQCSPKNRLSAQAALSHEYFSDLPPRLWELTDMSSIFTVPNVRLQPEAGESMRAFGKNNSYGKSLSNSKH
protein kinases (human kinome) (Homo sapiens, UniProt P48730), sequence (P48730 whole entry): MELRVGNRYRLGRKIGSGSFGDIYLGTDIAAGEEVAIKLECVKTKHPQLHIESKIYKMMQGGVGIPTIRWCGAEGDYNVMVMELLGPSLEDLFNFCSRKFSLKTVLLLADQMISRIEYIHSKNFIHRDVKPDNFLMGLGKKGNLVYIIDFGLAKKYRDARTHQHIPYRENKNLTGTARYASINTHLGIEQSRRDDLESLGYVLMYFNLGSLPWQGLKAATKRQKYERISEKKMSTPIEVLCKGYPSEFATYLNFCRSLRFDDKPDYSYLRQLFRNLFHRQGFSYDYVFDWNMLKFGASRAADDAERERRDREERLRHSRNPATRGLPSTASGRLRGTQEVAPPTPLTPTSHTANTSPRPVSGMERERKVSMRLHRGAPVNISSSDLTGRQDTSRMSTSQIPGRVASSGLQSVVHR
protein kinases (human kinome) (Homo sapiens, UniProt P41240), sequence (P41240 whole entry): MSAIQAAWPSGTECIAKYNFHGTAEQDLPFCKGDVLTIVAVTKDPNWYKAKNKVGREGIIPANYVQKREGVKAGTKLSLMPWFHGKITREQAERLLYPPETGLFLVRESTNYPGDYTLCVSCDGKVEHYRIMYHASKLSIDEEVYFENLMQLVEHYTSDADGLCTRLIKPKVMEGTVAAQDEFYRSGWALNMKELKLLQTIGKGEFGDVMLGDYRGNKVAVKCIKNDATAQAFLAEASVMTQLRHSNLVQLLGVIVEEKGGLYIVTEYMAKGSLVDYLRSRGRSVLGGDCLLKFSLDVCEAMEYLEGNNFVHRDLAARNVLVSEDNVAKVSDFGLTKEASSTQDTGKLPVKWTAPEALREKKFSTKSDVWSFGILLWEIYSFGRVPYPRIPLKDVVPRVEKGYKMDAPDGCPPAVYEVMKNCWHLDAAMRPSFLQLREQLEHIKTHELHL
protein kinases (human kinome) (Homo sapiens, UniProt Q9P1W9), sequence (Q9P1W9 whole entry): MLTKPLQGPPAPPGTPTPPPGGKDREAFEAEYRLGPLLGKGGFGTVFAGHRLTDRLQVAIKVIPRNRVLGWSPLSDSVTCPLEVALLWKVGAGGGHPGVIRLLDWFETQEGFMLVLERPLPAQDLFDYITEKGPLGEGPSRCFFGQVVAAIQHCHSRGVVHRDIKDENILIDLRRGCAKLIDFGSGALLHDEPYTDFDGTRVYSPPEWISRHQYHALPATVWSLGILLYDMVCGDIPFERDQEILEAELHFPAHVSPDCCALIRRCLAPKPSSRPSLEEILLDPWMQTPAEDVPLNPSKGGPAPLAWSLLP
protein kinases (human kinome) (Homo sapiens, UniProt P49840), sequence (P49840 whole entry): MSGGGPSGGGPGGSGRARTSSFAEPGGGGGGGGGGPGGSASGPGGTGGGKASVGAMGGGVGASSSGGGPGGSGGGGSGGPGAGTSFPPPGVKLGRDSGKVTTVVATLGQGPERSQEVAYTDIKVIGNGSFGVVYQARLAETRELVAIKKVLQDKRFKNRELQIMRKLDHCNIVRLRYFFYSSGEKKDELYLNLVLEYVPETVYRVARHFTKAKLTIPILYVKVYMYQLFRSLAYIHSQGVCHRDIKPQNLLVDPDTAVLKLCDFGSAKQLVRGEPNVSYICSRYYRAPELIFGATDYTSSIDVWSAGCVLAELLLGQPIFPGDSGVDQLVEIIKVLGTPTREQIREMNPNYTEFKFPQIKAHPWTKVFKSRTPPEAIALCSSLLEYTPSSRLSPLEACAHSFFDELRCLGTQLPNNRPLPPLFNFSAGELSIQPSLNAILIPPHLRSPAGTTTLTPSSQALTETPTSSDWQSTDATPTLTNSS
protein kinases (human kinome) (Homo sapiens, UniProt P53667), sequence (P53667 whole entry): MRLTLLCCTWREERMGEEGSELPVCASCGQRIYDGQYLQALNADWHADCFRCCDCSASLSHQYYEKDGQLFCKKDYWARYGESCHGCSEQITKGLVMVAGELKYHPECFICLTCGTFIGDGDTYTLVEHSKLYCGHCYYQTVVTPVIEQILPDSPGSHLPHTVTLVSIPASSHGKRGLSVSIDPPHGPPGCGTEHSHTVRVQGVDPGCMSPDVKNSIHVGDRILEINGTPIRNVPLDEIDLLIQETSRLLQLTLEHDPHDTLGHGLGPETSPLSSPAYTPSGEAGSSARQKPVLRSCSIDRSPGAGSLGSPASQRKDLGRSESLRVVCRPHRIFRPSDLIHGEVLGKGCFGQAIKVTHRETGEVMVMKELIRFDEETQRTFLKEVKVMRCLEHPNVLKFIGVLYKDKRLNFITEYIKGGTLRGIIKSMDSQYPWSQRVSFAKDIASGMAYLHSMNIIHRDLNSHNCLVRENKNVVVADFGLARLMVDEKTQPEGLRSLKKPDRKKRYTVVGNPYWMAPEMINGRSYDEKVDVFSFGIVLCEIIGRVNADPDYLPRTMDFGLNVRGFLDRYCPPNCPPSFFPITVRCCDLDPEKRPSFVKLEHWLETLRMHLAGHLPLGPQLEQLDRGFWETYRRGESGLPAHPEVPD

On to `Nc1ncnc2c1c(-c1ccc(Oc3ccccc3)cc1)nn2[C@H]1CC[C@H](N2CCN(CCCCCCNC(=O)COc3cccc4c3C(=O)N(C3CCC(=O)NC3=O)C4=O)CC2)CC1` (stereo partly drawn) [SB1.G.200], for which the logFC in assay [1] is given as −1.403; in assay [3] (ABL2 (P42684) protein abundance, degrader vs DMSO, down) it was −2.103; in assay [4], −0.76; in assay [7] (MAP2K5 (Q13163-1)) it was −1.433; in assay [8] (SRC (P12931-2) protein abundance, degrader vs DMSO, down) it was −2.174. The “logFC LATS1” value in assay [1] is given as −1.403. For the same compound, the “logFC of CSK” value in assay [2] (Accession P41240) is reported as −3.011. The “logFC CSK” value in [2] (CSK (P41240), down) is given as −3.011. The “logFC ABL2 (P42684)” value in assay [3] (experiment wp071) was −2.103. Further, the “logFC CSNK1E” value in assay [4] is given as −0.76. Also, the “logFC BLK” value in [5] (BLK (P51451), direction down, experiment wp071) is listed as −1.525. For the same compound, the “logFC of BLK (P51451)” value in assay [5] (Experiment wp071, down) is reported as −1.525. The “logFC LIMK1” value in assay [6] (direction down) and in [6] (down) was −0.775 each time. Besides, the “logFC of MAP2K5 (Q13163-1)” value in [7] was −1.433. The “logFC ABL1” value in [8] (ABL1 (P00519-2), experiment wp071) is reported as −1.646. Besides, the “logFC FYN” value in assay [8] (Accession P06241-2, experiment wp071) is given as −1.777; in assay [8] (FYN P06241-2, experiment wp071) it was −1.777. For the same compound, in [8] (Accession P12931-2, experiment wp071), the “logFC of SRC” value is −2.174. In addition, the “logFC LCK” value in assay [8] (LCK, accession P06239-3, experiment wp071, direction of change down) is listed as −1.275. In assay [8] (experiment wp071), the “logFC ABL1 (P00519-2)” value is recorded as −1.646. Also, the “logFC LCK (P06239-3)” value in assay [8] (experiment wp071, direction of change down) is recorded as −1.275.
With `Nc1ncc(-c2ccc(S(=O)(=O)N(CCCNC(=O)CCOCCOCCOCCOCCOCCNc3cccc4c3C(=O)N(C3CCC(=O)NC3=O)C4=O)C3CC3)cc2F)cc1-c1ccc2c(c1)CCNC2=O` (stereo not drawn) [WH.9533.153], the logFC is on record as −1.367 in [9]; −1.367 in assay [9] (direction down); −0.7595 in [10] (STK17B (O94768), experiment wp017); −0.4637 in assay [11] (CDK14 (O94921-1), experiment wp017); −0.4833 in [13]; −0.4936 in assay [14] (STK4 (Q13043-1), experiment wp017). Further, the logFC in assay [15] is −0.7144; in assay [16] (PIM2 (Q9P1W9), experiment wp017), −0.4936. For the same compound, the “logFC STK17B (O94768)” value in [10] (Experiment wp017, direction down) was −0.7595. Besides, the “logFC of CDK14 (O94921-1)” value in assay [11] (Experiment wp017) is listed as −0.4637. In addition, the “logFC CSNK1D” value in assay [12] (Accession P48730-1, experiment wp017, direction down) is listed as −0.7788. Further, the “logFC of CSNK1D (P48730-1)” value in [12] (Experiment wp017) is listed as −0.7788. Further, the “logFC GSK3A” value in assay [13] was −0.4833. In addition, the “logFC of STK4 (Q13043-1)” value in [14] (Experiment wp017) was −0.4936. Besides, the “logFC of PIM2 (Q9P1W9)” value in assay [16] (Experiment wp017) is listed as −0.4936. The “logFC GSK3B” value is given as −1.317 in assay [8] (Accession P49841-2, direction down) and −1.317 in assay [8] (GSK3B P49841-2).
